The values below come from patent US20090318379A1, “Statins for the Treatment of Viral Influenza Infections” (priority 2006, published 2009).

Each structure is given as a SMILES string. Like-named read-outs stand apart in the source and are kept apart here.

The test system of data set [1] is Influenza A H5N1. The format is cell-based, Influenza A H5N1 (isolated in 1997 from human).
For data set [2], the system named is MDCK cells.
The subject of data set [3] is MDCK cells. The source holds these as a separate data set.
Data set [4] has as its system Influenza A H5N1. Format: cell-based, Influenza A H5N1 (isolated in 1997 from human). The source holds these as a separate data set.
The subject of data set [5] is MDCK cells. The source holds these as a separate data set.
In data set [6] the test system is Influenza A H5N1. The format is cell-based, Influenza A H5N1 (isolated in 1997 from human). This is another data set of the same source.

In data set [1], `NC(=O)c1ncn([C@@H]2O[C@H](CO)[C@@H](O)[C@H]2O)n1` [RIBAVIRIN, Ribavirin, reference compound] displayed a Number of plaques of 11000. Further, the “Cytotoxicity in virus yield reduction assay” value in data set [2] is on record as “No”. Also, in data set [3], the Cytotoxicity result was “No”. In data set [4], the “No. of plaque 1st well” value is 134, the “No. of plaque 2nd well” value was found to be 131 and the “No. of plaque 3rd well” value is 132. Besides, the Cytotoxicity result in data set [5] is listed as “No”. The molecule also displayed a No. of plaque in data set [6] of 0.
